Target: T1, HEK-Blue-hTLR7 cells (Homo sapiens, UniProt Q9NYK1)
T1 construct: expressed in transfected cells; host or cells: HEK-Blue-hTLR7 cells (HEK293-derived reporter line)
T1 sequence (Q9NYK1 27-1049): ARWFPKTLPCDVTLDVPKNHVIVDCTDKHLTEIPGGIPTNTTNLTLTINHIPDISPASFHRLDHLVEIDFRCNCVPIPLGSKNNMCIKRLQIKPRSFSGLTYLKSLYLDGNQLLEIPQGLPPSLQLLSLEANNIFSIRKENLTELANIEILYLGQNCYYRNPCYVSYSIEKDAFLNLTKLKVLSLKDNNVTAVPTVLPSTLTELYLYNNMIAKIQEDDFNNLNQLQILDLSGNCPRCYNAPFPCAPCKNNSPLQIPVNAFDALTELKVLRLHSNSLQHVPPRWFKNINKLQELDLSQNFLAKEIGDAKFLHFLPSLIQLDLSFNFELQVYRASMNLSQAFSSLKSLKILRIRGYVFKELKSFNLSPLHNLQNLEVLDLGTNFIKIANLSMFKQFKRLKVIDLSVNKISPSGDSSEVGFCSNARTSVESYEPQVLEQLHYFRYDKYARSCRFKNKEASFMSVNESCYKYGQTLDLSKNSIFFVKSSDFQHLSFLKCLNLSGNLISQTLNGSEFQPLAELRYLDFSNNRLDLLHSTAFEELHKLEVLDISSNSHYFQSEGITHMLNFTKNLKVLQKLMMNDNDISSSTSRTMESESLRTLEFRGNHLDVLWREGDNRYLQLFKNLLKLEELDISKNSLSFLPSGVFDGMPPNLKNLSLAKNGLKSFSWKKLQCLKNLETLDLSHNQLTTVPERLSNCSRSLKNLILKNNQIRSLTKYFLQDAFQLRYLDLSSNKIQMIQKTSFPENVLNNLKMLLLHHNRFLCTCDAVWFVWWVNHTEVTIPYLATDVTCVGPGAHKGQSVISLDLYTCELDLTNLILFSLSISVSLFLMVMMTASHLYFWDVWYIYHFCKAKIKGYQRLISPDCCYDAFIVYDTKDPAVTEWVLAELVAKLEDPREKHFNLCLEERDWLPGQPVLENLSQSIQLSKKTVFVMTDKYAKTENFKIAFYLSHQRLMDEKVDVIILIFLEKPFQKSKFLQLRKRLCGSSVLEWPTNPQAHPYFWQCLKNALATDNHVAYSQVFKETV
Test: HEK-Blue-hTLR7 cell inhibition assay
Assay type: cell-based
Conditions: R848 0.8 µM, 16 h, OD 620 nm, read-out: TLR7 IC50
Summary of the method: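 Cells were pre-incubated 4 h, then co-treated 16 h at 37 °C with compound (10 doses, 0.5–10000 nM final) plus R848 (0.8 µM for TLR7, 3 µM for TLR8) or ODN2006 (1 µM, TLR9). Reporter OD620 gave inhibition relative to DMSO blank and agonist-only controls; IC50 came from curve fitting.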

IC50 [nM]	SMILES
< 100	CN1CCC(c2nnc([C@]34CN(c5ccc(OC(F)(F)F)c6ncccc56)C[C@@]3(C(F)(F)F)C4)o2)CC1 [Compound 64, 2-(1-methylpiperidin-4-yl)-5-((1S,5R)-5-(trifluoromethyl)-3-(8-(trifluoromethoxy)quinolin-5-yl)-3-azabicyclo[3.1.0]hexan-1-yl)-1,3,4-oxadiazole]
< 1000	CN1CCC(c2nnc([C@]34CN(c5ccc(C#N)c6ncccc56)C[C@@]3(C(F)(F)F)C4)n2C)CC1 [Compound 5, 5-((1S,5R)-1-(4-methyl-5-(1-methylpiperidin-4-yl)-4H-1,2,4-triazol-3-yl)-5-(trifluoromethyl)-3-azabicyclo[3.1.0]hexan-3-yl)quinoline-8-carbonitrile]
< 100	CN1CCC(F)(c2nnc([C@]34CN(c5ccc(C#N)c6ncccc56)C[C@@]3(C(F)(F)F)C4)o2)C1 (stereo partly drawn) [Compound 47, 5-((1S,5R)-1-(5-(3-fluoro-1-methylpyrrolidin-3-yl)-1,3,4-oxadiazol-2-yl)-5-(trifluoromethyl)-3-azabicyclo[3.1.0]hexan-3-yl)quinoline-8-carbonitrile]
< 100	CN1CCC(Oc2nnc([C@]34CN(c5ccc(C#N)c6ncnn56)C[C@@]3(C(F)(F)F)C4)o2)CC1 [Compound 97, 5-((1S,5R)-1-(5-((1-methylpiperidin-4-yl)oxy)-1,3,4-oxadiazol-2-yl)-5-(trifluoromethyl)-3-azabicyclo[3.1.0]hexan-3-yl)-[1,2,4]triazolo[1,5-a]pyridine-8-carbonitrile]

From patent EP4806891A1 (Kangbaida (Sichuan) Biotechnology Co., Ltd., priority 2023, dated 2025)
